Like-named read-outs stand apart in the source and are kept apart here.

Series [1] addresses T1, immobilized α-lactalbumin (Bos taurus, UniProt P00711).
T1 sequence (P00711 20-142): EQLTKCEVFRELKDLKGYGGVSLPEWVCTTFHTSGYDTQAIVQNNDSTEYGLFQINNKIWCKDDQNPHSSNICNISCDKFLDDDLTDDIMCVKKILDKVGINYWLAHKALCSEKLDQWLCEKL
Kind of series: affinity chromatography on immobilized α-lactalbumin (agarose gel), fluorescamine detection. Type of series: binding. As for the experimental part: This example illustrates an affinity chromatography method for the removal of aminoglycosides from biological fluids either for purification of the aminoglycoside or purification of the fluid by removal of aminoglycosides. Lysozyme and α-lactalbumin are immobilized using Affi-Gel 10® (N-hydroxysuccinimide ester agarose gel). A 1 ml aliquot of Affi-Gel 10® is transferred to a 5 ml disposable column, the solvent is drained, and the gel is washed with 3 bed volumes of cold (4° C.) distilled, deionized water. A 2 ml aliquot of lysozyme, 25 mg/ml in 0.1M 3-(n-morpholino)-propanesulphonic acid buffer (MOPS), pH 7.0, is added to the gel within 10 minutes of the water wash. The column is capped, contents mixed to form a uniform suspension, and incubated at 4° C. for 4 hour on a rotator. […]
Affinity columns are prepared by adding 1 ml of agarose gel containing immobilized enzyme to 5 ml disposable columns and draining the solvent. […] The fluorescence of all fractions are determined as described below. […]
Aminoglycosides can be detected by fluorescence derivatization using fluorescamine (De Silva et al, Anal. Chem., Vol. 47, 714-718, 1975, herein incorporated by reference). The fluorescence assay has a detection limit of 5 ppm for hygromycin B in citrate. […] The fluorescence is detected using a Perkin Elmer luminescence spectrometer at an excitation of 395 nm and an emission of 485 nm. […]

The next series deals with immobilized rat albumin (Rattus norvegicus, UniProt P02770). The experiment in a line: binding by immobilized rat albumin (preliminary results).
For series [2], the target named is T2, immobilized lysozyme (Gallus gallus, UniProt P00698). Kind of series: affinity chromatography on immobilized lysozyme (agarose gel), fluorescamine detection. It counts as binding. Conditions: in adulterated biological fluids, without prior deionization.
Series [3] deals with T2, immobilized lysozyme. The description is as above. Type of series: binding. Particulars: for binding by the affinity column: solubilized in water; for binding by the immobilized lysozyme: 25 ppm in water, eluted with 10 mM sodium citrate buffer, pH 4.0. As for the experimental part: This example illustrates an affinity chromatography method for the removal of aminoglycosides from biological fluids either for purification of the aminoglycoside or purification of the fluid by removal of aminoglycosides. Lysozyme and α-lactalbumin are immobilized using Affi-Gel 10® (N-hydroxysuccinimide ester agarose gel). A 1 ml aliquot of Affi-Gel 10® is transferred to a 5 ml disposable column, the solvent is drained, and the gel is washed with 3 bed volumes of cold (4° C.) distilled, deionized water. A 2 ml aliquot of lysozyme, 25 mg/ml in 0.1M 3-(n-morpholino)-propanesulphonic acid buffer (MOPS), pH 7.0, is added to the gel within 10 minutes of the water wash. The column is capped, contents mixed to form a uniform suspension, and incubated at 4° C. for 4 hour on a rotator. After incubation, the effluent is collected to determine unbound protein using the BCA® (Bicinchoninic acid, Pierce, Rockford, IL.) method. The remaining active sites on the agarose support are blocked by incubating 1 ml of 0.1M ethylene diamine (in 0.1M MOPS, pH 7.0) with agarose support for 1 hour at 4° C. on a rotator. The gel is washed with MOPS to remove any unbound material (OD280nm =0). α-lactalbumin is solubilized in 0.1M MOPS, 80 mM calcium chloride, pH 7.0 and is immobilized on Affi-Gel® using the same procedure described above for lysozyme.
Affinity columns are prepared by adding 1 ml of agarose gel containing immobilized enzyme to 5 ml disposable columns and draining the solvent. The gel is washed with three bed volumes of cold (4° C.) distilled, deionized water. The immobilized lysozyme is activated by washing the gel with 2 ml of 0.1M NaOH at a flow rate of 1 ml/min followed by 4 bed volumes of cold (4° C.) distilled, deionized water to remove NaOH. […] Aqueous solutions of Hygromycin B, concentrations of 1-100 ppm in distilled deionized water, are applied to the affinity columns and allowed to flow by gravity at approximately 1 ml/min. The flow through was collected to determine the amount of unbound hygromycin B. The columns are washed using four 1.0 ml aliquots of water followed by four 1.0 ml aliquots of 10 mM sodium citrate buffer, pH 4.0. The fluorescence of all fractions are determined as described below. Approximately 29 mg of lysozyme (approximately 53% immobilization efficiency; n=12) and 18 mg of α-lactalbumin (approximately 36% immobilization efficiency; n=7) are immobilized per ml of agarose gel using a 4 hour incubation time.
Aminoglycosides can be detected by fluorescence derivatization using fluorescamine (De Silva et al, Anal. Chem., Vol. 47, 714-718, 1975, herein incorporated by reference). The fluorescence assay has a detection limit of 5 ppm for hygromycin B in citrate. […] The affinity column also binds neomycin B, gentamicin, streptomycin, and dihydrostreptomycin. The fluorescence is detected using a Perkin Elmer luminescence spectrometer at an excitation of 395 nm and an emission of 485 nm. In some cases, TLC analysis (Medina et al, IN Residues of Veterinary Drugs in Food, Haagsma et al ED., Proc. EuroResidue II Conference, Veldhoven, The Netherlands, May 3-5, 1993; J. Chromatography, Vol. 663, 127-135, 1995, both herein incorporated by reference) is performed using the eluate from the affinity columns. The solvent is evaporated from the eluates, the samples reconstituted 1:1 using 95% ethanol, and applied to a Whatman LHK-PD silica gel plate with preabsorbant zones (10×10 cm; 9 lanes). The gel plate is developed for approximately 20 minutes with acetone/ethanol/ammonium hydroxide; 1:1:1, dried in a vacuum oven, cooled to room temperature, and dipped for approximately 4 seconds in 0.02% fluorescamine (acetone/hexane; 1:14). The plate is dried, sprayed lightly with 0.2M sodium citrate buffer, pH 3.0-5.0, with optimal signal at approximately pH 4.0, and the fluorescent bands are detected using an ultraviolet light box at a wavelength of 365 nm. […]

For series [4] the following is noted: cited from earlier work.
The next series concerns the target lysozyme (Gallus gallus, UniProt P00698). The experiment in a line: competitive binding assay, spectinomycin-FITC tracer and latex lysozyme-particles (particle concentration fluorescent assay). Particulars: for displacement or competition for the binding sites (bound spectinomycin-FITC): spectinomycin-FITC 4.9 ng and 2.45 ng. The procedure:
This example illustrates the development of an aminoglycoside competitive binding assay using spectinomycin as the test aminoglycoside to confirm the presence of aminoglycosides in aqueous tissue extracts. Lysozyme is immobilized onto latex particles using the following method. Carboxylated latex particles are dispersed by sonication, 10 pulses of 75% duty cycle using power 3. Aliquots of 0.2 ml particles are transferred into 10 ml conical polypropylene tubes. The carboxyls are activated by adding 150 mg N-ethyl-N^3 (3-dimethylaminopropyl)-carbodiimide hydrochloride (EDC) and allowed to stand for approximately 15-20 minutes at approximately room temperature. Two ml of 0.1 mg/ml lysozyme in pH 7, 0.1M phosphate buffer is heated at […] for approximately 30 minutes and then is added to the activated particles drop by drop while mixing gently. The mixture is incubated at 37° C. for approximately 1.5 hours. The derivatized latex (latex-lysozyme) is centrifuged at approximately 8225×g (approximately 10,000 rpm) for approximately 5 minutes at approximately 4° C. The supernatant is assayed for protein content and compared with initial protein concentration using a Biorad protein assay. The latex-lysozyme is washed twice with 2 ml of pH 7 phosphate buffer and centrifuged at approximately 3,000×g for approximately 10 minutes. Four ml of phosphate buffer containing 0.1% sodium azide and 0.015% Brij surfactant is added to the latex lysozyme and the mixture is sonicated with 10 pulses prior to storage at 4° C.
To prepare the label for the assay, spectinomycin base (0.01 mM) and FITC (0.02 mM) are dissolved separately in 0.5 ml of 10 mM dibasic phosphate buffer adjusted to pH 8.8 with 10 mM monobasic phosphate buffer. The mixture is mixed gently for 2 hours at room temperature prior to storage at 4° C. The labeling is carried out in brown vials or in tubes wrapped with aluminum foil to prevent photodegradation of the fluorescent compounds. Dilutions are made such that 20 μl contains approximately 5 ng spectinomycin-FITC. Completion of derivatization is screened by thin layer chromatography using 10 ml of developing solvent, methanol:chloroform:acetone:ammonium hydroxide in a ratio of 3:3:3:1. The reaction mixture is diluted in distilled water, 1:100, and applied in 1 μl quantities to TLC plates and developed for approximately 10 minutes in a 118 ml capacity round glass bottle. The derivatized compound is compared to a 0.1 μM FITC sample. […]
Binding and competition interactions are assessed using lysozyme-particles containing 0.6 pg protein in 10 μl. […] In the 2-step saturation binding assay, the displacement of the bound spectinomycin-FITC is determined by adding unlabeled spectinomycin, 20 μl of 100 ng/ml, after the 30 minute incubation with spectinomycin-FITC. […]

As for `CN[C@@H]1C[C@H](N)[C@@H](O)[C@H](O[C@H]2O[C@H](CO)[C@H](O)[C@@H]3O[C@@]4(O[C@@H]23)O[C@H]([C@H](N)CO)[C@H](O)[C@H](O)[C@H]4O)[C@H]1O` [Hygromycin B], the binding capacity in series [1] (immobilized α-lactalbumin) is given as 0.1 mg per ml of affinity gel; at immobilized lysozyme [3] (immobilized lysozyme) it was 0.5 mg per ml of affinity gel. The “binding by immobilized rat albumin” value on immobilized rat albumin was “binding”. The “binding to immobilized lysozyme” value on immobilized lysozyme [2] is on record as “does not bind”. Further, the “binding by the affinity column” value on immobilized lysozyme [3] (10 ppm (5 ml)) and on immobilized lysozyme [3] (60 ppm (10 ml)) was “completely bound” each time. The “binding by the immobilized lysozyme” value at immobilized lysozyme [3] is reported as “completely bound”. Besides, at immobilized lysozyme [3] (per ml of affinity gel), the “difference in binding capacity, lysozyme vs α-lactalbumin” value is recorded as 5 fold.

Turning to Neomycin, the “loss of activity of residues in eggs” value in series [4] (eggs) is 25%; in series [4] (frying eggs), “little or no loss of activity”; in series [4] (soft boiling and hard boiling), “little or no loss of activity”.

Take `NC[C@@H]1O[C@H](O[C@H]2[C@@H](O)[C@H](O[C@@H]3[C@@H](O)[C@H](N)C[C@H](N)[C@H]3O[C@H]3O[C@H](CN)[C@@H](O)[C@H](O)[C@H]3N)O[C@@H]2CO)[C@H](N)[C@@H](O)[C@@H]1O` [neomycin B]: at immobilized lysozyme [3], the “binding to the lysozyme affinity column (qualitative)” value is recorded as “binds” and the “binding by the immobilized lysozyme” value is listed as “completely bound”.

Regarding `CN[C@@H]1[C@H](O[C@H]2[C@H](O[C@H]3[C@H](O)[C@@H](O)[C@H](NC(=N)N)[C@@H](O)[C@@H]3NC(=N)N)O[C@@H](C)[C@]2(O)CO)O[C@@H](CO)[C@H](O)[C@H]1O` [dihydrostreptomycin], the “binding to the lysozyme affinity column (qualitative)” value on immobilized lysozyme [3] is “binds”.

As for `[H]/N=C(/N)N[C@H]1[C@H](O)[C@@H](O)[C@H](O[C@@H]2O[C@@H](C)[C@](O)(C=O)[C@H]2O[C@@H]2O[C@@H](CO)[C@H](O)[C@@H](O)[C@@H]2NC)[C@@H](N/C(N)=N\[H])[C@@H]1O` [streptomycin], the “binding to the lysozyme affinity column (qualitative)” value on immobilized lysozyme [3] is recorded as “binds”.

Turning to gentamicin, the “binding by immobilized α-lactalbumin (qualitative)” value in series [1] (FIG. 4) was “incomplete binding”. At immobilized lysozyme [3], the “binding to the lysozyme affinity column (qualitative)” value is given as “binds” and the “binding by the immobilized lysozyme” value is “completely bound”.

With `CN[C@@H]1[C@H](O)[C@H](NC)[C@H]2O[C@@]3(O)C(=O)C[C@@H](C)O[C@H]3O[C@@H]2[C@H]1O` [spectinomycin], the “displacement or competition for the binding sites (bound spectinomycin-FITC)” value on lysozyme (1-step equilibrium assay, 20 ng unlabeled spectinomycin) turned out to be 34%; at lysozyme (2-step assay, 20 ng unlabeled spectinomycin added), 96%. For the same molecule, the “competition of unlabeled drug for the binding sites” value on lysozyme (1-step equilibrium assay, dilute spectinomycin-FITC (1.22 ng)) was found to be 78%. In addition, the “displacement of bound spectinomycin-FITC” value at lysozyme (2-step assay, dilute spectinomycin-FITC (1.22 ng)) is on record as “not displaced”.
